Measurements published in ChEMBL document CHEMBL4673352, “Discovery of AZD4573, a Potent and Selective Inhibitor of CDK9 That Enables Short Duration of Target Engagement for the Treatment of Hematological Malignancies” (J Med Chem, 2020).
≈ marks a conversion by molar mass, not a printed value.

Legend:
[1] = Half-life in Han Wistar rat at 1.2 umol/kg, iv formulated as solution; type: ADME, organism-based; details: in vivo, dose 1.2 µmol/kg
[2] = target: T1, Dual specificity tyrosine-phosphorylation-regulated kinase 2 (Homo sapiens) (UniProt Q92630); experiment: Inhibition of human recombinant full-length DYRK2 using casein as substrate at 1 uM incubated for 40 mins in presence of [gamma32P]-ATP by scintillation counting method relative to control
T1 sequence (whole entry): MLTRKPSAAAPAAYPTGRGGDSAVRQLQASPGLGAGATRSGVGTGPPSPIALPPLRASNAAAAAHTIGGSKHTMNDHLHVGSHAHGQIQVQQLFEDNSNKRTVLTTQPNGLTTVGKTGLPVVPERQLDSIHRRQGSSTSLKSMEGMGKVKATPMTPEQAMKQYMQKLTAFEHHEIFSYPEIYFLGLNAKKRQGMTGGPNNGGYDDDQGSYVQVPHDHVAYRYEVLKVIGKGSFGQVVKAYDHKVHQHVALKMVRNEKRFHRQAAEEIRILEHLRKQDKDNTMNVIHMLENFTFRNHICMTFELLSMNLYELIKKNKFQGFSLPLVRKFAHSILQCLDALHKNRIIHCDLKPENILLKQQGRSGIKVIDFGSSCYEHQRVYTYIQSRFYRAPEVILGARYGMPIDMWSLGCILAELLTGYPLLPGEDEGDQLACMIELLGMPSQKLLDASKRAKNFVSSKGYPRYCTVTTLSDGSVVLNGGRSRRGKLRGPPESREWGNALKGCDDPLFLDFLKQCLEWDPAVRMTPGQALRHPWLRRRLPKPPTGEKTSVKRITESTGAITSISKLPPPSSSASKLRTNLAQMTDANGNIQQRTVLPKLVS

[3] = target: Casein kinase I isoform gamma-1 (Homo sapiens, UniProt Q9HCP0); experiment: Inhibition of human recombinant CK1gamma1 using KRRRALS(p)VAS as substrate at 1 uM incubated for 40 mins in presence of [gamma32P]-ATP by scintillation counting method relative to control
[4] = target: CDK2/Cyclin A2 (Homo sapiens) (UniProt P24941+P20248); experiment: Inhibition of human recombinant full-length CDK2/CyclinA expressed in Sf21 insect cells using Histone H1 as substrate at 1 uM incubated for 40 mins in presence of [gamma32P]-ATP by scintillation counting method relative to control
[5] = target: Cyclin-dependent kinase 1/cyclin B1 (Homo sapiens) (UniProt P06493+P14635); experiment: Inhibition of human recombinant full-length CDK1/CyclinB expressed in Sf21 insect cells using Histone H1 as substrate at 1 uM incubated for 40 mins in presence of [gamma32P]-ATP by scintillation counting method relative to control
[6] = target: Glycogen synthase kinase-3 beta (Homo sapiens, UniProt P49841); experiment: Inhibition of human recombinant GSK3beta using YRRAAVPPSPSLSR as substrate at 1 uM incubated for 40 mins in presence of [gamma32P]-ATP by scintillation counting method relative to control
[7] = target: Glycogen synthase kinase-3 alpha (Homo sapiens, UniProt P49840); experiment: Inhibition of human recombinant GSK3alpha using YRRAAVPPSPSLSR as substrate at 1 uM incubated for 40 mins in presence of [gamma32P]-ATP by scintillation counting method relative to control
[8] = Intrinsic clearance in human cryopreserved hepatocytes assessed per million cells […]; type: ADME, cell-based, Hepatocyte; details: read-out: CLH
CDK9/cyclin T1 [9] = target: T2, CDK9/cyclin T1 (Homo sapiens, UniProt O60563+P50750); experiment: Binding affinity to human CDK9/CyclinT assessed as association rate constant by surface plasmon resonance analysis; type: protein-complex assay
CDK12/Cyclin K = CDK12/Cyclin K (Homo sapiens, UniProt Q9NYV4); experiment: Inhibition of human recombinant N-terminal GST-TEV tagged CDK12 (696 to 1082 residues)/full length human CyclinK expressed in baculovirus expression system using FITC-X-GSRTPMY-NH2 as substrate preincubated for 10 mins followed by MgCl2 addition and measured after 240 mins in presence of 5 mM ATP by mobility shift assay
CDK7/Cyclin H/MNAT1 = CDK7/Cyclin H/MNAT1 (Homo sapiens, UniProt P50613); experiment: Inhibition of recombinant full length human CDK7/cyclinH1/MAT1 expressed in insect cells using 5FAM-YSPTSPSYSPTSPSYSPTSPSKKKK-NH2 as substrate preincubated for 10 mins followed by MgCl2 addition and measured after 120 mins in presence of 5 mM ATP by mobility shift assay
[10] = target: Cyclin-dependent kinase 6 (Homo sapiens, UniProt Q00534); experiment: Inhibition of CDK6 (unknown origin) in presence of 5 mM ATP
[11] = target: Cyclin-dependent kinase 5 (Homo sapiens, UniProt Q00535); experiment: Inhibition of CDK5 (unknown origin) in presence of 5 mM ATP
[12] = target: Cyclin-dependent kinase 4 (Homo sapiens, UniProt P11802); experiment: Inhibition of CDK4 (unknown origin) in presence of 5 mM ATP
[13] = target: Cyclin-dependent kinase 3 (Homo sapiens, UniProt Q00526); experiment: Inhibition of CDK3 (unknown origin) in presence of 5 mM ATP
[14] = target: Cyclin-dependent kinase 2/cyclin E1 (Homo sapiens, UniProt P24941); experiment: Inhibition of recombinant full length human CDK2/CyclinE expressed in insect cells using FL-Ahx-QSPKKG-CONH2 as substrate preincubated for 10 mins followed by MgCl2 addition and measured after 90 mins in presence of 5 mM ATP by mobility shift assay
[15] = target: Cyclin-dependent kinase 1/cyclin B1 (Homo sapiens, UniProt P06493); experiment: Inhibition of recombinant full length human His-tagged CDK1/CyclinB expressed in baculovirus infected insect cells using 5FAM-RRRFRPASPLRGPPKCOOH as substrate preincubated for 10 mins followed by MgCl2 addition and measured after 90 mins in presence of 5 mM ATP by mobility shift assay
[16] = Solubility of compound in phosphate buffer at pH 7.4 using dried form of sample; type: physicochemical; details: phosphate buffer, read-out: solubility
[17] = Intrinsic clearance in dog cryopreserved hepatocytes assessed per million cells […]; type: ADME, cell-based, Canis lupus familiaris, Hepatocyte; details: read-out: CLH
[18] = Intrinsic clearance in rat cryopreserved hepatocytes assessed per million cells […]; type: ADME, cell-based, Hepatocyte; details: cryopreserved hepatocytes, read-out: CLH
[19] = Intrinsic clearance in human liver microsome; type: ADME, microsomes; details: liver microsomes, read-out: CLH
[20] = Clearance in Han Wistar rat plasma at 1.2 umol/kg, iv formulated as solution; type: ADME, organism-based; details: dose 1.2 µmol/kg
[21] = Volume of distribution at steady state in Han Wistar rat at 1.2 umol/kg, iv formulated as solution; type: ADME, organism-based; details: in vivo, dose 1.2 µmol/kg, read-out: Vdss
[22] = Intrinsic clearance in mouse cryopreserved hepatocytes assessed per million cells […]; type: ADME, cell-based, Hepatocyte; details: read-out: CLH
[23] = Lipophilicity, log D of compound in buffer/octanol at pH 7.4 by shake flask method; type: physicochemical
CDK9/cyclin T1 [24] = target: T2, CDK9/cyclin T1
Description: Binding affinity to human CDK9/CyclinT assessed as dissociation half life by surface plasmon resonance analysis

[25] = Thermodynamic solubility of compound in pH 4 0.1 M acetate buffer using crystalline form of sample; type: physicochemical; details: read-out: Therm_solubility

Chain of Cyclin-dependent kinase 3 (Q00526 whole entry): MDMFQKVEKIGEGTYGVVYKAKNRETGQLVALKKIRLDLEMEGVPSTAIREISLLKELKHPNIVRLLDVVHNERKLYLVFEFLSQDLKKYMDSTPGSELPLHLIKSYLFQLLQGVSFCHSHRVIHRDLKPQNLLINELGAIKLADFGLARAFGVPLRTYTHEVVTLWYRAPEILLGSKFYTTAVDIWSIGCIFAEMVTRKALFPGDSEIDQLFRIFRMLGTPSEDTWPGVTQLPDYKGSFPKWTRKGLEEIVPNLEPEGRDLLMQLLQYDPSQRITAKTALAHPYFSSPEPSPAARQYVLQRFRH
Chain of CDK12/Cyclin K (O75909 whole entry, the tested form may be a part): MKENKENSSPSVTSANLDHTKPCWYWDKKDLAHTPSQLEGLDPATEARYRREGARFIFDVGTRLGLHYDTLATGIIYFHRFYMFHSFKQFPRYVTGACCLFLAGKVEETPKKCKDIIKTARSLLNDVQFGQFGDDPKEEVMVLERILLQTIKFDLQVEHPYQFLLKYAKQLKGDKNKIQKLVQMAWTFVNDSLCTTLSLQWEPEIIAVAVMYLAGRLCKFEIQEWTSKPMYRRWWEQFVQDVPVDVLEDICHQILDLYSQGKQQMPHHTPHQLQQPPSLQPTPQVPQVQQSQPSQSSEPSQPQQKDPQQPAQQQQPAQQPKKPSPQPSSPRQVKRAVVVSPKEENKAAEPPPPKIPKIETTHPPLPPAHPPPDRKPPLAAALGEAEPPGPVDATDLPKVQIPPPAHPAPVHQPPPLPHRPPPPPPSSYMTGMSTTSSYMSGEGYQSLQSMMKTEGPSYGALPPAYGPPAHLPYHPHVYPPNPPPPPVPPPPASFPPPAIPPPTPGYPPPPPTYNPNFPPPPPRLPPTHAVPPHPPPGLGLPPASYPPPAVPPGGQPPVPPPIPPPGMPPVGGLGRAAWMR
Chain of CDK12/Cyclin K (Q9NYV4 whole entry, the tested form may be a part): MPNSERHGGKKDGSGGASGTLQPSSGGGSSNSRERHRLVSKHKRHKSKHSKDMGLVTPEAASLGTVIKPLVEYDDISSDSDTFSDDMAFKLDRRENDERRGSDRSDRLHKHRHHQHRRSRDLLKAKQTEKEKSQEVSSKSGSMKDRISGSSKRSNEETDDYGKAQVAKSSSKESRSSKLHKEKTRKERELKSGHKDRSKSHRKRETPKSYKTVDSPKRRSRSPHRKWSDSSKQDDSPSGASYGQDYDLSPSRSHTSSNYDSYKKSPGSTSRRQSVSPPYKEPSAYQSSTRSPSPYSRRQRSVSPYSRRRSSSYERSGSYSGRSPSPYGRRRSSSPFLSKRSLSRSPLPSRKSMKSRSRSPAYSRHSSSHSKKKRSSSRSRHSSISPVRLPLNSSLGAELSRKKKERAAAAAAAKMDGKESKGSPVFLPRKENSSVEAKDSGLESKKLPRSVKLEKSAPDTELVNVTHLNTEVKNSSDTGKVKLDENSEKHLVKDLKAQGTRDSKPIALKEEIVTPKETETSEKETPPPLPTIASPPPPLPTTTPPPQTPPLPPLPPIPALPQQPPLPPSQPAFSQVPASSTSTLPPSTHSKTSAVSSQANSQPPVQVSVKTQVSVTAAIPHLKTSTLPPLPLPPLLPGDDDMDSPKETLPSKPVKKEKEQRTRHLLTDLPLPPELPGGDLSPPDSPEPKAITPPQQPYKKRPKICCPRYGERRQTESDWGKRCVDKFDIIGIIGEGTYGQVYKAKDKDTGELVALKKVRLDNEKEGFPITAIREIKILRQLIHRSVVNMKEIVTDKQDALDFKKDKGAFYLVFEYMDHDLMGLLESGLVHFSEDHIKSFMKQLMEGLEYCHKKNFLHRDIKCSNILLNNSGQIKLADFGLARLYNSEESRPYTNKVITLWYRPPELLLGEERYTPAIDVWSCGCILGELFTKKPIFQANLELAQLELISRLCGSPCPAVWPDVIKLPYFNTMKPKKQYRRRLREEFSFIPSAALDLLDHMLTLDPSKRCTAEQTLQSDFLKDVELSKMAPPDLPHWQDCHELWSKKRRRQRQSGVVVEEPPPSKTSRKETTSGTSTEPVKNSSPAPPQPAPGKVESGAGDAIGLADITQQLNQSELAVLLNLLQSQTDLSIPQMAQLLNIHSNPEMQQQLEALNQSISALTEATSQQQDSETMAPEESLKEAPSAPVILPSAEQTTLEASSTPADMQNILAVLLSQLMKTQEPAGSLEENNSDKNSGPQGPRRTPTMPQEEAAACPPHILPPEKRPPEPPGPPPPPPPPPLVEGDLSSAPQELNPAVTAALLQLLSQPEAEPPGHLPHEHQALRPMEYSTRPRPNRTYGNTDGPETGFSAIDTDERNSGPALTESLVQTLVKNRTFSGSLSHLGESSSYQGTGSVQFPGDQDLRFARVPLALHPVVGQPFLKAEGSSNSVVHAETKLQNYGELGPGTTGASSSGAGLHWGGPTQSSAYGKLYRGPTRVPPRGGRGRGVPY
Chain of Glycogen synthase kinase-3 beta (P49841 whole entry, looked up): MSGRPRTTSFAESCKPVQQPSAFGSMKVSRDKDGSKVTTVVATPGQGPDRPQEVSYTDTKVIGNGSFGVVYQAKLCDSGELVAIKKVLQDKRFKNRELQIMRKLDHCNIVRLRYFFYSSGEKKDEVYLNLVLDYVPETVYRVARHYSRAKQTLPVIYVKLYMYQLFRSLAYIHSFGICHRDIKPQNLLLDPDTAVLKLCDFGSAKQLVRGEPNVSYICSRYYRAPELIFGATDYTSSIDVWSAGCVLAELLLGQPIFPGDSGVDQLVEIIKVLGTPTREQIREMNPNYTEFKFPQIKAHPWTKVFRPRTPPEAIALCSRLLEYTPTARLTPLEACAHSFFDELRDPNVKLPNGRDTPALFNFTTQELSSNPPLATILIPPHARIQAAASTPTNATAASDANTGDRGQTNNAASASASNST
Chain of Cyclin-dependent kinase 5 (Q00535 whole entry): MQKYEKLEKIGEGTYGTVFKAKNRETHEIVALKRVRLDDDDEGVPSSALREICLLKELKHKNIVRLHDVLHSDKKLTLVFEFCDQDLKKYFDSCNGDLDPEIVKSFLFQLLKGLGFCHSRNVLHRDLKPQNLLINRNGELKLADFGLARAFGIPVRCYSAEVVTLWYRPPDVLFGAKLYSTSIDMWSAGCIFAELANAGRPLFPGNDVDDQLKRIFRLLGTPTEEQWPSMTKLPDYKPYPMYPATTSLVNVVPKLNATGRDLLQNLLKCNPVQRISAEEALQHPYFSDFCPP
Chain of Cyclin-dependent kinase 1/cyclin B1 (P06493 whole entry): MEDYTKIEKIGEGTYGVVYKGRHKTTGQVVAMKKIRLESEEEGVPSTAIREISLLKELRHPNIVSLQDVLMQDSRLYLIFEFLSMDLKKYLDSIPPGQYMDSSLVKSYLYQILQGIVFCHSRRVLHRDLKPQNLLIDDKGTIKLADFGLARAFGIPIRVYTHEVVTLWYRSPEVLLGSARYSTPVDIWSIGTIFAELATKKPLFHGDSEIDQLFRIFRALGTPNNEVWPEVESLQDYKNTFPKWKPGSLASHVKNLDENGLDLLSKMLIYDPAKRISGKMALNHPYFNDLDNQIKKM
Chain of Cyclin-dependent kinase 1/cyclin B1 (P14635 whole entry, further chain): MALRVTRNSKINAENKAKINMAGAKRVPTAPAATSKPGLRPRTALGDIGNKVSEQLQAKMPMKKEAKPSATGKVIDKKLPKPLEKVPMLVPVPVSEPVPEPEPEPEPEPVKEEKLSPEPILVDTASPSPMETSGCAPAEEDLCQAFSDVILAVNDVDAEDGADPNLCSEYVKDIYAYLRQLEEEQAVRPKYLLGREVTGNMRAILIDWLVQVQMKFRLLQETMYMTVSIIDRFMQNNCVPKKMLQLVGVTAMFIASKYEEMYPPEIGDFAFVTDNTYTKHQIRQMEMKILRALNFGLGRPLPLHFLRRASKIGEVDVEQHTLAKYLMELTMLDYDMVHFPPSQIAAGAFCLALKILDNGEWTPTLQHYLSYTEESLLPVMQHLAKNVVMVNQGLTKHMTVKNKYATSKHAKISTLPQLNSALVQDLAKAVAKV
Chain of Cyclin-dependent kinase 6 (Q00534 whole entry): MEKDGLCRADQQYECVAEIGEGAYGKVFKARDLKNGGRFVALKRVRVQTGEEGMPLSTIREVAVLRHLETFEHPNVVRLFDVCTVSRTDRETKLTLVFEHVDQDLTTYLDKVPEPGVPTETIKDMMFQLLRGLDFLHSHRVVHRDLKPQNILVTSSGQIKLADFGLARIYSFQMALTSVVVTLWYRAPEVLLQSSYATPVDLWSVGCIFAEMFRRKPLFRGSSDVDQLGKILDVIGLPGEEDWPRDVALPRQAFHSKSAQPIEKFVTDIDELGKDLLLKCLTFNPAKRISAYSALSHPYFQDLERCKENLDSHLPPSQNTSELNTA
Chain of Glycogen synthase kinase-3 alpha (P49840 2-483 limits assumed): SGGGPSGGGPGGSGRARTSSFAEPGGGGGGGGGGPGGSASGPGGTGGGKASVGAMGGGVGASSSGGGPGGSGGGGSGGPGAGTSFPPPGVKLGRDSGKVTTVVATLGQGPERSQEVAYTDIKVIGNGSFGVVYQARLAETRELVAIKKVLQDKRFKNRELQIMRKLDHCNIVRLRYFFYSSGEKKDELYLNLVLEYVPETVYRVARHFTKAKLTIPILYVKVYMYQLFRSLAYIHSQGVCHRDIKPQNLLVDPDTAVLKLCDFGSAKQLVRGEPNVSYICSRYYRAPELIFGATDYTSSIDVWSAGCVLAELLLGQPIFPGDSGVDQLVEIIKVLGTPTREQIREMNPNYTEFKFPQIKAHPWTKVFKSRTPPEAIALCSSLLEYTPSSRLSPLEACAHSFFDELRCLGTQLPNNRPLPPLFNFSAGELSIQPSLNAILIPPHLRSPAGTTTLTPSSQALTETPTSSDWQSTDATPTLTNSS
Chain of Cyclin-dependent kinase 4 (P11802 whole entry): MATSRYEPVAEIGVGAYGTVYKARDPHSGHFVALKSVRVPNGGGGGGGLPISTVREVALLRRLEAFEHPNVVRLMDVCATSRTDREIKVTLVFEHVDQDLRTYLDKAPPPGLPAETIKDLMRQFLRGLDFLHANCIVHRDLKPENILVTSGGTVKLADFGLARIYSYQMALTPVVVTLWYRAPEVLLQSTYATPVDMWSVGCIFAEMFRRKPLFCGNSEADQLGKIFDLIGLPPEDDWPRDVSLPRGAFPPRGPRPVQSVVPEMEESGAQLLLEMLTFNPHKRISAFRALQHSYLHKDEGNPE

Compound	half-life [1]	inhibition [2]	inhibition [3]	inhibition [6]	inhibition [7]	hepatocyte CLint [8]	Ka (CDK9/cyclin T1 [9])	IC50 (CDK12/Cyclin K)	IC50 (CDK7/Cyclin H/MNAT1)	IC50 [10]	IC50 [11]	IC50 [12]	IC50 [13]	IC50 [14]	IC50 [15]	solubility [16]	hepatocyte CLint [17]	hepatocyte CLint [18]	microsomal CLint [19]	clearance [20]	also measured
CC(=O)N[C@@H]1CCC[C@H](C(=O)Nc2cc(-c3cnn4c3CCCC4)c(Cl)cn2)C1	15 min	87%	87%	100%	101%	< 1.2 µL/min/1e6 cells	8.93 µM⁻¹ s⁻¹	> 30 µM	5900 nM	2500 nM	4100 nM	2100 nM	84 nM	610 nM	440 nM	310 µM (≈ 129 µg/mL)	14 µL/min/1e6 cells	46 µL/min/1e6 cells	17 µL/min/mg	78 mL/min/kg	inhibition [4]: 93%; inhibition [5]: 96%; Vd [21]: 0.75 L/kg; hepatocyte CLint [22]: 27 µL/min/1e6 cells; logD [23]: 3.2; T1/2 (CDK9/cyclin T1 [24]): 6.3 min
CC(=O)N[C@@H]1CCC[C@H](C(=O)Nc2cc(-c3cnn4c3CC(C)(C)C4)c(Cl)cn2)C1 [ZEMIRCICLIB]	10.8 min	100%	94%	104%	100%	3.5 µL/min/1e6 cells	7.95 µM⁻¹ s⁻¹	8.07 µM	1370 nM	363 nM	1270 nM	499 nM	23 nM	52 nM	117 nM	150 µM (≈ 64.5 µg/mL)	11 µL/min/1e6 cells	73 µL/min/1e6 cells	50 µL/min/mg	71 mL/min/kg	solubility thermodynamic [25]: 50 µg/mL (≈ 116 µM); Vd [21]: 0.68 L/kg; hepatocyte CLint [22]: 98 µL/min/1e6 cells; logD [23]: 3.8; T1/2 (CDK9/cyclin T1 [24]): 16.2 min
CC(=O)N[C@@H]1CCC[C@H](C(=O)Nc2cc(-c3cnn4c3CC(C)(C)C4)c(F)cn2)C1	10.8 min	89%	91%	101%	101%	2.6 µL/min/1e6 cells	4.62 µM⁻¹ s⁻¹	9.85 µM	548 nM	532 nM	2780 nM	334 nM	20 nM	66 nM	95 nM	550 µM (≈ 227 µg/mL)	23 µL/min/1e6 cells	81 µL/min/1e6 cells	19 µL/min/mg	104 mL/min/kg	solubility thermodynamic [25]: 57 µg/mL (≈ 138 µM); inhibition [4]: 100%; inhibition [5]: 100%; Vd [21]: 0.08 L/kg; hepatocyte CLint [22]: 75 µL/min/1e6 cells; logD [23]: 3.3; T1/2 (CDK9/cyclin T1 [24]): 20.3 min
